Blank lines part the entries; values can stand above or below the molecule they belong to.
What was measured:
[1] = test system: HIV; settings: cited from earlier work
[2] = test system: HCV replicon RNA (Renilla luciferase HCV replicon cells 2209-23, human hepatoma Huh7); experiment: Renilla luciferase HCV replicon assay; type: cell-based, hepatitis C virus (HCV); settings: Huh-7, 72 h; replicon cells 2209-23, incubated three days at 37° C.; concentration reducing replicon level by 50%
[3] = monotherapy; cited from earlier work

melting point: 160.4 to 162.2 °C
Compound: CCCCC(=O)O[C@@H]1[C@H](n2ccc(N)nc2=O)O[C@@](CO)(N=[N+]=[N-])[C@H]1OC(=O)CCCC

melting point: 106.9 to 107.3 °C
Compound: CC(C)C(NC(=O)OC(C)(C)C)C(=O)OC[C@@]1(N=[N+]=[N-])O[C@@H](n2ccc(N)nc2=O)[C@@H](O)[C@@H]1O (stereo partly shown)

melting point: 110.3 to 119.3 °C
Compound: CCCCCCCCCCCCCC(=O)OC[C@@]1(N=[N+]=[N-])O[C@@H](n2ccc(N)nc2=O)[C@@H](O)[C@@H]1O

Compound: C#CC1(CO)OC(n2ccc(N)nc2=O)C(O)C1O (stereo not shown) [Compound 12a, 4-Ethynyl-cytarabine]
anti-HIV activity [1]: good anti-HIV activity

Compound: [N-]=[N+]=N[C@]1(CO)O[C@@H](n2ccc(N)nc2=O)[C@@H](O)[C@@H]1O [Compound I-1, 4-Amino-1-((2R,3S,4S,5R)-5-azido-3,4-dihydroxy-5-hydroxymethyl-tetrahydro-furan-2yl)-1H-pyrimidin-2-one]
IC50 [2]: 0.22 µM

Compound: NC(=O)c1ncn([C@@H]2O[C@H](CO)[C@@H](O)[C@H]2O)n1 [ribavirin, 1-((2R,3R,4S,5R)-3,4-Dihydroxy-5-hydroxymethyl-tetrahydro-furan-2-yl)-1H-[1,2,4]triazole-3-carboxylic acid amide]
effect on serum levels of HCV-RNA [3]: does not lower | patients in whom serum amino transferase levels are reduced to normal [3]: 40%
